Laboratory results: patent publication US20190016689A1, “NOVEL FLUORINATED QUINAZOLINE DERIVATIVES AS EGFR INHIBITORS” (TRILLIUM THERAPEUTICS INC., priority 2016, published 2019)

What was measured:
[1] = Log P determination (HPLC with reference substances); type: physicochemical; conditions: HPLC retention against reference substances of known log P
Experimental: Prepare thiourea in acetonitrile and ultrapure water mixture (1:1 in v:v) as unretained organic substance sample. Prepare acetanilide, methyl benzoate, benzophenone, benzyl benzoate, fluoranthene and DDT in acetonitrile and ultrapure water mixture (1:1 in v:v) as reference substances mixture.
Prepare the stock solutions of test compounds and control compound progesterone in acetonitrile at the concentration of 2 mM. Dilute one volume of the stock solution with one volume of ultrapure water. If not soluble, filtrate the sample using a 0.45 μm nylon membrane.
Prepare acidic or basic mobile phase according to the character of test compounds. Run a blank sample (ultrapure water mixture (1:1 in v:v)), followed by unretained organic substance sample and reference substances mixture. Then run the test compounds and control compound in singlet, and at the end of the batch rerun the reference substances mixture.

EPHA1 = molecular target: T1, EPHA1 (Homo sapiens, UniProt P21709); experiment: Binding to EPHA (kinase competition binding, qPCR); conditions: 300 nM, read-out: % Control @ 300 nM
T1 construct: T7 phage fusion (kinase-tagged phage) or DNA tag for qPCR; made in house; host or cells: E. coli BL21-derived host (T7 phage) or HEK-293
T1 sequence (P21709 26-976): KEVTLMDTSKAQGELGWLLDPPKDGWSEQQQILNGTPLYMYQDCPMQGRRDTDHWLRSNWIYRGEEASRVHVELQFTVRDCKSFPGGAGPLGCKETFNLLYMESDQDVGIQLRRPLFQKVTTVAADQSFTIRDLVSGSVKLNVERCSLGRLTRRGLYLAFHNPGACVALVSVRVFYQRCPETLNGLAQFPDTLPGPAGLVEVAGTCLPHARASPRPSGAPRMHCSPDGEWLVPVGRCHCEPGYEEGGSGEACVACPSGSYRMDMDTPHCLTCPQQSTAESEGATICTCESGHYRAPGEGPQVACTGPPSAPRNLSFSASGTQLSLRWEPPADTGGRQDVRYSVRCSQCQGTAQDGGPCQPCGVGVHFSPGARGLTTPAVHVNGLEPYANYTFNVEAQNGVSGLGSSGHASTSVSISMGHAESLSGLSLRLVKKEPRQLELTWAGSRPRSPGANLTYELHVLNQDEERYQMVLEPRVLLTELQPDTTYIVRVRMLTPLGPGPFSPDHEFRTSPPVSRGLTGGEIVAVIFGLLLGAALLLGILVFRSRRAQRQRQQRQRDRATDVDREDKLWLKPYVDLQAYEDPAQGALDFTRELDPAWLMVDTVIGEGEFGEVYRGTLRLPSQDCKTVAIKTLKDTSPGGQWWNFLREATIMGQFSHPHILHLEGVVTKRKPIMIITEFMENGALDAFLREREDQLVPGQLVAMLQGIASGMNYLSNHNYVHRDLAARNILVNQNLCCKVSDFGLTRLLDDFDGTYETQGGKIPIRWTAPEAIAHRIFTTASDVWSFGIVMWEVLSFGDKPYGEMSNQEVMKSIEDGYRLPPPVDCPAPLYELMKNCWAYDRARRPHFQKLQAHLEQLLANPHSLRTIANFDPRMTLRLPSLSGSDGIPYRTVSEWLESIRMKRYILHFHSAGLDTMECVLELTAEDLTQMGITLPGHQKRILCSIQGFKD
Experimental: (§1) The lysates were centrifuged and filtered to remove cell debris. […] All reactions were performed in polystyrene 96-well plates in a final volume of 0.135 ml.

EPHA2 = molecular target: T2, EPHA2 (Homo sapiens, UniProt P29317); experiment: Binding to EPHA (kinase competition binding, qPCR); conditions: 300 nM, read-out: % Control @ 300 nM
T2 construct: T7 phage fusion (kinase-tagged phage) or DNA tag for qPCR; made in house; host or cells: E. coli BL21-derived host (T7 phage) or HEK-293
Experimental: as §1

EPHA3 = molecular target: T3, EPHA3 (Homo sapiens, UniProt P29320); experiment: Binding to EPHA (kinase competition binding, qPCR); conditions: 300 nM, read-out: % Control @ 300 nM
T3 construct: T7 phage fusion (kinase-tagged phage) or DNA tag for qPCR; made in house; host or cells: E. coli BL21-derived host (T7 phage) or HEK-293
T3 sequence (P29320 21-983): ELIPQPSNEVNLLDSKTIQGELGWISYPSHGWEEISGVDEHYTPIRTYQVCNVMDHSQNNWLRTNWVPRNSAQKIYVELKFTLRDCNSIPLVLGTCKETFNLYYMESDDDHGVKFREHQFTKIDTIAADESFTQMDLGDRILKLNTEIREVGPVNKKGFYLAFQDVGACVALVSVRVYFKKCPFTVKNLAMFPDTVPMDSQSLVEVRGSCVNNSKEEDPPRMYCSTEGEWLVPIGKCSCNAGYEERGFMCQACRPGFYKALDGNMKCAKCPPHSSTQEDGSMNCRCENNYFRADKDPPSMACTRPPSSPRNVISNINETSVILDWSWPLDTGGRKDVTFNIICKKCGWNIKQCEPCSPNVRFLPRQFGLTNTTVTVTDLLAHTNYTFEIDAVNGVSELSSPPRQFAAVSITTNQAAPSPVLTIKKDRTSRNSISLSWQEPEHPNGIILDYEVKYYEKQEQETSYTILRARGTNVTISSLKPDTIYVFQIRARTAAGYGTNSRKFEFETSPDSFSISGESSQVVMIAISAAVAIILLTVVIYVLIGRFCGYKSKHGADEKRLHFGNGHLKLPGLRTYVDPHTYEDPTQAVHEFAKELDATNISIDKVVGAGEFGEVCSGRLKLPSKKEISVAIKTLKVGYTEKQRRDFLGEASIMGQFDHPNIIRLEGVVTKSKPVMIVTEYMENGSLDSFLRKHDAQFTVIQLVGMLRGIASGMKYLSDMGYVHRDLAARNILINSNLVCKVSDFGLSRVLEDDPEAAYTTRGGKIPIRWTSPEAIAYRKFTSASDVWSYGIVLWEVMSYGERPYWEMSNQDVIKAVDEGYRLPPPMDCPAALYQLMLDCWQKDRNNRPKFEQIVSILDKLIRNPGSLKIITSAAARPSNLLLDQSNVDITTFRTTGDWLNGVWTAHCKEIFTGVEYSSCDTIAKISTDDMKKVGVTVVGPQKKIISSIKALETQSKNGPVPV
Experimental: as §1

EPHA4 = molecular target: T4, EPHA4 (Homo sapiens, UniProt P54764); experiment: Binding to EPHA (kinase competition binding, qPCR); conditions: 300 nM, read-out: % Control @ 300 nM
T4 construct: T7 phage fusion (kinase-tagged phage) or DNA tag for qPCR; made in house; host or cells: E. coli BL21-derived host (T7 phage) or HEK-293
Experimental: as §1

EPHA5 = molecular target: T5, EPHA5 (Homo sapiens, UniProt P54756); experiment: Binding to EPHA (kinase competition binding, qPCR); conditions: 300 nM, read-out: % Control @ 300 nM
T5 construct: T7 phage fusion (kinase-tagged phage) or DNA tag for qPCR; made in house; host or cells: E. coli BL21-derived host (T7 phage) or HEK-293
Experimental: as §1

EPHA7 = molecular target: T6, EPHA7 (Homo sapiens, UniProt Q15375); experiment: Binding to EPHA (kinase competition binding, qPCR); conditions: 300 nM, read-out: % Control @ 300 nM
T6 construct: T7 phage fusion (kinase-tagged phage) or DNA tag for qPCR; made in house; host or cells: E. coli BL21-derived host (T7 phage) or HEK-293
Experimental: as §1

EPHA8 = molecular target: T7, EPHA8 (Homo sapiens, UniProt P29322); experiment: Binding to EPHA (kinase competition binding, qPCR); conditions: 300 nM, read-out: % Control @ 300 nM
T7 construct: T7 phage fusion (kinase-tagged phage) or DNA tag for qPCR; made in house; host or cells: E. coli BL21-derived host (T7 phage) or HEK-293
Experimental: as §1

HL-60(TB) = experiment: NCI screening panel (SRB); type: cell-based; conditions: Homo sapiens, HL-60(TB) (Leukemia), 48 h; for CC50: read-out: LC50 (the source's name)
MOLT-4 = experiment: NCI screening panel (SRB); type: cell-based; conditions: Homo sapiens, MOLT-4 (Leukemia), 48 h; for CC50: read-out: LC50 (the source's name)
EKVX = experiment: NCI screening panel (SRB); type: cell-based; conditions: Homo sapiens, EKVX (NSCLC), 48 h; for CC50: read-out: LC50 (the source's name)
COLO205 = experiment: NCI screening panel (SRB); type: cell-based; conditions: Homo sapiens, COLO 205, COLO205 (Colon), 48 h; for CC50: read-out: LC50 (the source's name)
HCT-116 = experiment: NCI screening panel (SRB); type: cell-based; conditions: Homo sapiens, HCT-116 (Colon), 48 h; for CC50: read-out: LC50 (the source's name)
SF-539 = experiment: NCI screening panel (SRB); type: cell-based; conditions: Homo sapiens, SF-539 (CNS), 48 h; for CC50: read-out: LC50 (the source's name)
UACC-257 = experiment: NCI screening panel (SRB); type: cell-based; conditions: Homo sapiens, UACC-257 (Melanoma), 48 h; for CC50: read-out: LC50 (the source's name)
UACC-62 = experiment: NCI screening panel (SRB); type: cell-based; conditions: Homo sapiens; UACC-62 (Melanoma), 48 h
ACHN = experiment: NCI screening panel (SRB); type: cell-based; conditions: Homo sapiens, ACHN (Renal), 48 h; for CC50: read-out: LC50 (the source's name)
PC-3 = experiment: NCI screening panel (SRB); type: cell-based; conditions: Homo sapiens, PC-3 (Prostate), 48 h; for CC50: read-out: LC50 (the source's name)
MCF7 = experiment: NCI screening panel (SRB); type: cell-based; conditions: Homo sapiens, MCF7 (Breast), 48 h; for CC50: read-out: LC50 (the source's name)
Microsomal stability = type: in vitro ADME, mouse (CD-1, male); conditions: Mouse liver microsomes with NADPH; for Remaining Percentage (%) after 60 min: 1 μM; for half-life at 1 μM / microsomal CLint at 1 μM: male, CD-1
Experimental: Working stocks were initially diluted to a concentration of 40.0 μM in 0.1 M potassium phosphate buffer before addition to the reaction vials. Pooled mouse (CD-1, male) or human (50 donors) liver microsomes were utilized at a final concentration of 0.5 mg/ml. […] Reactions were carried out at 37° C. in a shaker, and the final concentration of DMSO was kept constant at 0.01%. The final volume for each reaction was 100 μL, which includes the addition of an NADPH-Regeneration solution (NRS) mix. This NRS mix is comprised of glucose 6-phosphate dehydrogenase (0.4 U/mL), NADP+(1.3 mM), MgCl2 (3.3 mM), and glucose 6-phosphate (3.3 mM) in assay mixtures. […] Samples were then centrifuged at 4,000 rpm for 10 minutes to remove debris and precipitated protein. Approximately 150 μL of supernatant was subsequently transferred to a new 96 well microplate for LC/MS analysis.
Narrow-window mass extraction LC/MS analysis was performed for all samples using a Waters Xevo quadrupole time-of-flight (QTof) mass spectrometer and an ACQUITY UPLC system, to determine relative peak areas of parent compound.

EGFR (G719C) = EGFR (G719C) (Homo sapiens, UniProt P00533, G719C); experiment: Kinase assays, selectivity panel (qPCR); conditions: read-out: % Control @ 300 nM
Sequence of EGFR (G719C) (P00533 25-1210 G719C): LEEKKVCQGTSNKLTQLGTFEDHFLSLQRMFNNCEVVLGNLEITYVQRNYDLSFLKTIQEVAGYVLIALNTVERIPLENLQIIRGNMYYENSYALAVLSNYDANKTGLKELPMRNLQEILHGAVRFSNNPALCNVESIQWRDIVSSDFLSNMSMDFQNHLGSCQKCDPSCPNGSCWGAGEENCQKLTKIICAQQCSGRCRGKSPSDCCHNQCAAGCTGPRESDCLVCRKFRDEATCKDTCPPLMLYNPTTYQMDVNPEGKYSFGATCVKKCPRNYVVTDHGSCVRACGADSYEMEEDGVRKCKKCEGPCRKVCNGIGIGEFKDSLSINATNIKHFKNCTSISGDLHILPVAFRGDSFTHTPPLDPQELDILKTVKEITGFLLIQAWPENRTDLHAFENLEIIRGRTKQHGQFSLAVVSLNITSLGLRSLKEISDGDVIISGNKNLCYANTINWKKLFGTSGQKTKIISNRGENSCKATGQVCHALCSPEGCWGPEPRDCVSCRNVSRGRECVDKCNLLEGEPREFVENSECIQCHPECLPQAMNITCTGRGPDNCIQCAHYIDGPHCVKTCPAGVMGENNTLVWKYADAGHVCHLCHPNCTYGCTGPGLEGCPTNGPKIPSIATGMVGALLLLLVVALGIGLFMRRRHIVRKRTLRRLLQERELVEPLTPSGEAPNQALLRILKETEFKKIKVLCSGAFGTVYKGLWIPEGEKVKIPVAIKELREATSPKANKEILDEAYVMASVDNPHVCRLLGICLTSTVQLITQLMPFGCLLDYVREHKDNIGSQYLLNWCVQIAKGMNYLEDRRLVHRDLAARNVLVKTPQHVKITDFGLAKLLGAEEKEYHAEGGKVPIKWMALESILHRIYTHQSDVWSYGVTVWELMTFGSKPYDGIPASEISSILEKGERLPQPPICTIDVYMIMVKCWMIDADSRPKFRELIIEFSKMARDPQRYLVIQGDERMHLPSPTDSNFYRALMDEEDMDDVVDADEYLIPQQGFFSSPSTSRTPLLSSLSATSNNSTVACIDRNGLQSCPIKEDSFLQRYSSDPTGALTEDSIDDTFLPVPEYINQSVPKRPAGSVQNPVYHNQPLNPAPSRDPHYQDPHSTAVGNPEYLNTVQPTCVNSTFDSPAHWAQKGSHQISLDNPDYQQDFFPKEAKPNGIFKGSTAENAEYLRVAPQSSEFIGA

[2] = molecular target: EGFR (L747-S752del, P753S) (Homo sapiens, UniProt P00533, DEL747-752/P753S); experiment: Kinase assays, selectivity panel (qPCR); conditions: read-out: % Control @ 300 nM
Sequence of EGFR (L747-S752del, P753S) (P00533 with tags, fused parts or gaps DEL747-752/P753S): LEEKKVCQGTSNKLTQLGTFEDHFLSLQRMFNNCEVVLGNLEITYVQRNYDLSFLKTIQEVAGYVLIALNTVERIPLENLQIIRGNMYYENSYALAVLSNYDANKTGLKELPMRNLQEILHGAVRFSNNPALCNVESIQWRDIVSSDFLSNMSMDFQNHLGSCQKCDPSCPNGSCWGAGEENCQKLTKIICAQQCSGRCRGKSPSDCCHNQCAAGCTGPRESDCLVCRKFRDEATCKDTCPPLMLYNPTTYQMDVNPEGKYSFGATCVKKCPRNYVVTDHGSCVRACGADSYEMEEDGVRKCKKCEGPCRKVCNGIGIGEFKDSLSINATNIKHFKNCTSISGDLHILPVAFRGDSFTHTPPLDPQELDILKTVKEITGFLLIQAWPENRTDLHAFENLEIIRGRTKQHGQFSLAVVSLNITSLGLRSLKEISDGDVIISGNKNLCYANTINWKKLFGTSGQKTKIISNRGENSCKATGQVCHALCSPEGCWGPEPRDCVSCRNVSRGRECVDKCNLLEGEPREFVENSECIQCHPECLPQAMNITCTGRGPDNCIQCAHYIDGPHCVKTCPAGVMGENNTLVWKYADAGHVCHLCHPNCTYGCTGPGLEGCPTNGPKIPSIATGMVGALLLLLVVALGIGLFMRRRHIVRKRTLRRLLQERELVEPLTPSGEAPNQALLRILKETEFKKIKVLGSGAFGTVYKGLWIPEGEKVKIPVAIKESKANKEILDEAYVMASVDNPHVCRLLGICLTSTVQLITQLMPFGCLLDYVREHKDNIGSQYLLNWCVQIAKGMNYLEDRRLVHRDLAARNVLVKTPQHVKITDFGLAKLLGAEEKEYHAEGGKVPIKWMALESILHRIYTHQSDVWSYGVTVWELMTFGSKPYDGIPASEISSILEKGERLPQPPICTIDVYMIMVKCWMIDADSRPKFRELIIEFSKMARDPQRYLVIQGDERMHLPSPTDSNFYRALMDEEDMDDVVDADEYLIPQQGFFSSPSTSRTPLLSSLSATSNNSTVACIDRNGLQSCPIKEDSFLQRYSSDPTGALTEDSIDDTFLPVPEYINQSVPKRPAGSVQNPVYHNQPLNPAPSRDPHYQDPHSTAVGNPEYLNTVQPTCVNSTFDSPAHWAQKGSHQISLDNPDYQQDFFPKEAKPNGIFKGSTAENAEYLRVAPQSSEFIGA

LCK (Lymphocyte TK) = LCK (Lymphocyte TK) (Homo sapiens, UniProt P06239); experiment: Kinase assays, selectivity panel (qPCR); conditions: read-out: % Control @ 300 nM
Sequence of LCK (Lymphocyte TK) (P06239 whole entry): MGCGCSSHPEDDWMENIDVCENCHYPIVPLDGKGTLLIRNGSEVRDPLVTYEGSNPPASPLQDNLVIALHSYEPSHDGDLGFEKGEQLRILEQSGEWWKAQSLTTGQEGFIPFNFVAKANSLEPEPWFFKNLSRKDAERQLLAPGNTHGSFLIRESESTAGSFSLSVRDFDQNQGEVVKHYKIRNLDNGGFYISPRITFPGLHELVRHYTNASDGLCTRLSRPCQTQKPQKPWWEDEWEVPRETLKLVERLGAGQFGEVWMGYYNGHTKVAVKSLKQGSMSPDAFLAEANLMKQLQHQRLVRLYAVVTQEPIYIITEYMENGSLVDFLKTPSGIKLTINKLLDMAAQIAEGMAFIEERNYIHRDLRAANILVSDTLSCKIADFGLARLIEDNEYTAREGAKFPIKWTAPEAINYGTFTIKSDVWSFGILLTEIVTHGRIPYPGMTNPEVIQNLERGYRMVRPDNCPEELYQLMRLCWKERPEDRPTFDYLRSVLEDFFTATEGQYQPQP

SRC = SRC (Homo sapiens, UniProt P12931); experiment: Kinase assays, selectivity panel (qPCR); conditions: read-out: % Control @ 300 nM

Compound	chromatographic logP [1]	remaining binding at 0.3 µM (EPHA1) [%]	remaining binding at 0.3 µM (EPHA2) [%]	remaining binding at 0.3 µM (EPHA3) [%]	remaining binding at 0.3 µM (EPHA4) [%]	remaining binding at 0.3 µM (EPHA5) [%]	remaining binding at 0.3 µM (EPHA7) [%]	remaining binding at 0.3 µM (EPHA8) [%]	GI50 (HL-60(TB)) [µM]	CC50 (HL-60(TB)) [µM]	GI50 (MOLT-4) [µM]	CC50 (MOLT-4) [µM]	GI50 (EKVX) [µM]	CC50 (EKVX) [µM]	GI50 (COLO205) [µM]	CC50 (COLO205) [µM]	GI50 (HCT-116) [µM]	CC50 (HCT-116) [µM]	GI50 (SF-539) [µM]	CC50 (SF-539) [µM]	other results
CN(C)C/C=C/C(=O)Nc1cc2c(Nc3cccc(Cl)c3F)ncnc2cc1OCCOC(F)F.O=C(O)/C=C\C(=O)O [Example I-5-MA, (E)-N-[4-(3-chloro-2-fluoro-anilino)-7-[2-(difluoromethoxy)ethoxy]quinazolin-6-yl]-4-(dimethylamino)but-2-enamide dimaleic acid salt]	3.57	–	–	–	–	–	–	–	–	–	–	–	–	–	–	–	–	–	–	–	–
CN(C)C/C=C/C(=O)Nc1cc2c(Nc3ccc(F)c(Cl)c3F)ncnc2cc1OCCOC(F)F.O=C(O)/C=C\C(=O)O.O=C(O)/C=C\C(=O)O [Example I-9-MA, (E)-N-[4-(3-chloro-2,4-difluoro-anilino)-7-[2-(difluoromethoxy)ethoxy]quinazolin-6-yl]-4-(dimethylamino)but-2-enamide di-maleic acid salt]	–	34	92	46	51	51	56	40	1.73	32.2	0.849	47.5	< 0.01	19.6	1.23	31.7	0.483	22.4	1.06	9.52	GI50 (UACC-257): 2.18 µM; CC50 (UACC-257): 34 µM; GI50 (UACC-62): 1.49 µM; LC50 (UACC-62): 9.95 µM; GI50 (ACHN): < 0.01 µM; CC50 (ACHN): 6.01 µM; GI50 (PC-3): 2.55 µM; CC50 (PC-3): 58.5 µM; GI50 (MCF7): 1.4 µM; CC50 (MCF7): 57.8 µM; Remaining Percentage (%) after 60 min (Microsomal stability): 30.53%; half-life at 1 μM (Microsomal stability): 35.2 min; microsomal CLint at 1 μM (Microsomal stability): 39.4 µL/min/mg; remaining activity at 0.3 µM (EGFR (G719C)): 1.1%; remaining activity at 0.3 µM [2]: 2.8%; remaining activity at 0.3 µM (LCK (Lymphocyte TK)): 1.3%; remaining activity at 0.3 µM (SRC): 3.5%
O=C(/C=C/CN1CCCCC1)Nc1cc2c(Nc3ccc(F)c(Cl)c3F)ncnc2cc1OCCOC(F)F.O=C(O)/C=C\C(=O)O.O=C(O)/C=C\C(=O)O [Example I-10-MA, (E)-N-[4-(3-chloro-2,4-difluoro-anilino)-7-[2-(difluoromethoxy)ethoxy]quinazolin-6-yl]-4-(1-piperidyl)but-2-enamide di-maleic acid salt]	–	24	80	45	50	49	40	33	1.75	30.8	1.12	98.4	0.0347	23.9	1.74	> 100	1.54	88.9	1.5	14.3	GI50 (UACC-257): 1.74 µM; CC50 (UACC-257): 24.1 µM; GI50 (UACC-62): 1.79 µM; LC50 (UACC-62): 20.5 µM; GI50 (ACHN): < 0.01 µM; CC50 (ACHN): 15 µM; GI50 (PC-3): 2.38 µM; CC50 (PC-3): 51 µM; GI50 (MCF7): 1.84 µM; CC50 (MCF7): 59.8 µM; Remaining Percentage (%) after 60 min (Microsomal stability): 48.95%; half-life at 1 μM (Microsomal stability): 57.8 min; microsomal CLint at 1 μM (Microsomal stability): 24 µL/min/mg; remaining activity at 0.3 µM (EGFR (G719C)): 0%; remaining activity at 0.3 µM [2]: 2.5%; remaining activity at 0.3 µM (LCK (Lymphocyte TK)): 1.3%; remaining activity at 0.3 µM (SRC): 4.8%
CN(C)C/C=C/C(=O)Nc1cc2c(Nc3ccc(F)c(Cl)c3)ncnc2cc1O[C@H]1CCOC1 [Afatinib, reference compound]	4.26	–	–	–	–	–	–	–	–	–	–	–	–	–	–	–	–	–	–	–	–
